These results are taken from US20210169984A1, “SENSITIZING CANCER TO DEATH RECEPTOR AGONISTS WITH KINASE INHIBITORS” (The Johns Hopkins University, priority 2016, published 2021).

Counter-ions that a name gives are not always drawn.

Format in all cases: cell-based, human
The test system of experiment [1] is MDA-MB-231 breast cancer cells. Kind of experiment: KI library screen for TRAIL sensitization. From the text: (§1) A library of KIs was screened for TRAIL sensitization in various TRAIL-resistant cancer cells, including: HT29 (CRC), MDA-MB-231 (breast), LNCAP (prostate), DU145 (prostate), PC3 (prostate) and A549 (lung). […] The 355 KIs comprised of compounds targeting diverse kinases, including multi kinases, RTK (receptor kinase tyrosine), PI3K (phosphinistide 3-kinase), aurora kinases, including […] (mitogen-activated protein kinase). […] The interaction between KIs and TRAIL had been previously explored in vitro with the tyrosine KI sorafenib, a drug similar to regorafenib. However, such studies were mostly performed on cellular levels and not in in vivo models, combined with systemically administered recombinant TRAIL. Although a similar structure, regorafenib was newly approved in 2012. The interactions between the three other selected KIs and TRAIL have not been previously reported, in vitro or in vivo.

Experiment [2] concerns A549 lung carcinoma cells. Kind of experiment: KI library screen for TRAIL sensitization.
From the text: as §1

For a further experiment, the system named is HT29 (CRC) cells. Kind of experiment: KI library screen for TRAIL sensitization (KI pretreatment, then TRAILPEG; MTT cell death assay). Particulars: for efficacy when combined with TRAILPEG (relative cell death, KI+TRAILPEG / KI alone): HT29 cells pretreated with KI for 24 hours before TRAILPEG; for KIs that sensitize cancer cells to TRAIL-based agents: HT-29 colorectal adenocarcinoma. For orientation: Tetrazolium dyes change colour on reduction, which living cells bring about.

Experiment [3] relates to LNCAP prostate adenocarcinoma cells. Nature of the experiment: KI library screen for TRAIL sensitization.
From the text: as §1

Experimental for HT29 (CRC) cells: The screening is performed using an MTT cell death assay in CRC cells with different TRAIL sensitivities.

In the case of `Cc1[nH]nc2ccc(-c3cncc(OC[C@@H](N)Cc4ccccc4)c3)cc12` [A-674563], the “KIs that sensitize cancer cells to TRAIL-based agents” value (from here on “KIs that sensitize cancer cells”) in experiment [1] was “Example KIs that sensitize cancer cells to TRAIL-based agents”.

Consider `O=C(NC1CCNCC1)c1[nH]ncc1NC(=O)c1c(Cl)cccc1Cl` [AT7519], for which the “KIs that sensitize cancer cells” value in experiment [2] is given as “Example KIs that sensitize cancer cells to TRAIL-based agents”.

Consider `Cc1cc(Nc2nc(N[C@@H](C)c3ccc(F)cc3)c(C#N)cc2F)[nH]n1` [AZ 960], for which, in experiment [1], the “KIs that sensitize cancer cells” value is “Example KIs that sensitize cancer cells to TRAIL-based agents”.

As to `Cc1ncc(-c2ccnc(Nc3ccc(S(C)(=O)=O)cc3)n2)n1C(C)C` [AZD5438], the “KIs that sensitize cancer cells” value in experiment [2] was “Example KIs that sensitize cancer cells to TRAIL-based agents”.

As for `N#CC1(c2ccc(NC(=O)c3cccnc3NCc3ccncc3)cc2)CCCC1` [Apatinib], the “KIs that sensitize cancer cells” value in experiment [2] is recorded as “Example KIs that sensitize cancer cells to TRAIL-based agents”.

In the case of `Cn1c(=O)n(-c2ccc(C(C)(C)C#N)cc2)c2c3cc(-c4cnc5ccccc5c4)ccc3ncc21` [BEZ235 (NVP-BEZ235, Dactolisib), Dactolisib], in the experiment with HT29 (CRC) cells, the “efficacy when combined with TRAILPEG (relative cell death, KI+TRAILPEG / KI alone)” value is on record as “synergistic efficacy” and the “KIs that sensitize cancer cells” value is “Example KIs that sensitize cancer cells to TRAIL-based agents”.

With `CCN1CCN(c2ccc(Nc3cc(N(C)C(=O)Nc4c(Cl)c(OC)cc(OC)c4Cl)ncn3)cc2)CC1` [BGJ398 (NVP-BGJ398)], the “KIs that sensitize cancer cells” value in experiment [2] was “Example KIs that sensitize cancer cells to TRAIL-based agents”.

Take `CCCCOc1c(C(=O)c2c(F)cc(C)cc2F)c[nH]c2nncc1-2` [BMS-265246]: the “KIs that sensitize cancer cells” value in experiment [2] and in experiment [1] was “Example KIs that sensitize cancer cells to TRAIL-based agents” in each case.

Regarding `CC[C@H](Nc1ncnc2[nH]cnc12)c1nc2cccc(F)c2c(=O)n1-c1ccccc1` [CAL-101 (Idelalisib, GS-1101), Idelalisib], in the experiment with HT29 (CRC) cells, the “efficacy when combined with TRAILPEG (relative cell death, KI+TRAILPEG / KI alone)” value is recorded as “synergistic efficacy” and the “KIs that sensitize cancer cells” value is “Example KIs that sensitize cancer cells to TRAIL-based agents”.

Turning to `Cc1cc(CN2CCN(c3c(Br)cnc4nc(-c5ccc(N6CCN(C)CC6)cc5)[nH]c34)CC2)no1` [CCT137690], in experiment [1], the “KIs that sensitize cancer cells” value is given as “Example KIs that sensitize cancer cells to TRAIL-based agents”.

As for `O=c1[nH]c2ccc(Cl)cc2c(N[C@@H]2CN3CCC2CC3)c1-c1nc2ccccc2[nH]1` [CHIR-124], the “KIs that sensitize cancer cells” value in experiment [2] and in experiment [1] was “Example KIs that sensitize cancer cells to TRAIL-based agents” each time.

`N#CCNC(=O)c1ccc(-c2ccnc(Nc3ccc(N4CCOCC4)cc3)n2)cc1` [CYT387]: in experiment [1], the “KIs that sensitize cancer cells” value is on record as “Example KIs that sensitize cancer cells to TRAIL-based agents”.

As for `C=CC(=O)Nc1cc2c(Nc3ccc(F)c(Cl)c3)ncnc2cc1OCCCN1CCOCC1` [Canertinib (CI-1033), Canertinib], the “KIs that sensitize cancer cells” value in experiment [1] is on record as “Example KIs that sensitize cancer cells to TRAIL-based agents”.

`Cc1cc(Nc2cc(N3CCN(C)CC3)nc(/C=C/c3ccccc3)n2)n[nH]1` [ENMD-2076]: in the experiment with HT29 (CRC) cells, the “efficacy when combined with TRAILPEG (relative cell death, KI+TRAILPEG / KI alone)” value is reported as “synergistic efficacy” and the “KIs that sensitize cancer cells” value was “Example KIs that sensitize cancer cells to TRAIL-based agents”.

In the case of `CN1CC[C@H](c2c(O)cc(O)c3c(=O)cc(-c4ccccc4Cl)oc23)[C@H](O)C1` [Flavopiridol HCl], the “KIs that sensitize cancer cells” value in experiment [2] and in experiment [1] was “Example KIs that sensitize cancer cells to TRAIL-based agents” each time.

On to `CCc1cc(Nc2nccc(-c3c(-c4ccc(OC)c(C(=O)Nc5c(F)cccc5F)c4)nc4ccccn34)n2)c(OC)cc1N1CCC(N2CCN(S(C)(=O)=O)CC2)CC1` [GSK1904529A], for which, in experiment [2], the “KIs that sensitize cancer cells” value is listed as “Example KIs that sensitize cancer cells to TRAIL-based agents”.

Take `CNC(=O)c1ccc(-c2cnc3ncc(Cc4ccc5ncccc5c4)n3n2)cc1F` [INCB28060]: the “KIs that sensitize cancer cells” value in experiment [3] is given as “Example KIs that sensitize cancer cells to TRAIL-based agents”.

As for `Cc1cc(Nc2cc(CN3CCOCC3)c3nc(C)c(Cc4ccc(Cl)cc4F)n3n2)n[nH]1` [LY2784544], the “KIs that sensitize cancer cells” value in experiment [1] is listed as “Example KIs that sensitize cancer cells to TRAIL-based agents”.

Regarding `CS(=O)(=O)CCNCc1ccc(-c2ccc3ncnc(Nc4ccc(OCc5cccc(F)c5)c(Cl)c4)c3c2)o1` [Lapatinib (GW-572016) Ditosylate, Lapatinib], the “KIs that sensitize cancer cells” value in experiment [2] and in experiment [3] was “Example KIs that sensitize cancer cells to TRAIL-based agents” each time.

As to `CNC(=O)c1nn(C)c2c1C(C)(C)Cc1cnc(Nc3ccc(N4CCN(C)CC4)cc3)nc1-2` [Milciclib (PHA-848125), Milciclib], the “KIs that sensitize cancer cells” value in experiment [1] was “Example KIs that sensitize cancer cells to TRAIL-based agents”.

On to `C[C@]1(O)C[C@@H](c2nc(-c3ccc4ccc(-c5ccccc5)nc4c3)c3c(N)nccn32)C1` [OSI-906 (Linsitinib), Linsitinib], for which the “KIs that sensitize cancer cells” value in experiment [3] is reported as “Example KIs that sensitize cancer cells to TRAIL-based agents”.

Consider `O=C(Nc1ccc(OC(F)(F)F)cc1)c1sccc1NCc1ccnc2ccccc12` [OSI-930], for which, in the experiment on HT29 (CRC) cells, the “efficacy when combined with TRAILPEG (relative cell death, KI+TRAILPEG / KI alone)” value is recorded as “synergistic efficacy” and the “KIs that sensitize cancer cells” value was “Example KIs that sensitize cancer cells to TRAIL-based agents”.

In the case of `COc1cccc(-c2cc(=O)c3ccccc3o2)c1N` [PD98059], in the experiment with HT29 (CRC) cells, the “efficacy when combined with TRAILPEG (relative cell death, KI+TRAILPEG / KI alone)” value is listed as “synergistic efficacy” and the “KIs that sensitize cancer cells” value is listed as “Example KIs that sensitize cancer cells to TRAIL-based agents”.

With `CN(c1ncccc1CNc1nc(Nc2ccc3c(c2)CC(=O)N3)ncc1C(F)(F)F)S(C)(=O)=O` [PF-00562271], in experiment [1], the “KIs that sensitize cancer cells” value is recorded as “Example KIs that sensitize cancer cells to TRAIL-based agents”.

On to `O=C1NCCc2[nH]c(-c3ccncc3)cc21` [PHA-767491], for which, in experiment [1], the “KIs that sensitize cancer cells” value is recorded as “Example KIs that sensitize cancer cells to TRAIL-based agents”.

Consider `CC(C)CC(=O)Nc1[nH]nc2c1CN(C(=O)C1CCN(C)CC1)C2(C)C` [PHA-793887], for which, in experiment [1], the “KIs that sensitize cancer cells” value is given as “Example KIs that sensitize cancer cells to TRAIL-based agents”.

Turning to `Cc1ccc([N+](=O)[O-])cc1S(=O)(=O)N(C)/N=C/c1cnc2ccc(Br)cn12` [PIK-75], in experiment [1], the “KIs that sensitize cancer cells” value is “Example KIs that sensitize cancer cells to TRAIL-based agents”.

Turning to `CCOc1cc2ncc(C#N)c(Nc3ccc(F)c(Cl)c3)c2cc1NC(=O)/C=C/CN(C)C` [Pelitinib (EKB-569), Pelitinib], the “KIs that sensitize cancer cells” value in experiment [1] was “Example KIs that sensitize cancer cells to TRAIL-based agents”.

As to `CC[C@H](CO)Nc1nc(NCc2ccccc2)c2ncn(C(C)C)c2n1` [Roscovitine (Seliciclib, CYC202), Roscovitine], in experiment [1], the “KIs that sensitize cancer cells” value is “Example KIs that sensitize cancer cells to TRAIL-based agents”.

For the compound `CC(C)(C)c1cnc(CSc2cnc(NC(=O)C3CCNCC3)s2)o1` [SNS-032 (BMS-387032)], the “KIs that sensitize cancer cells” value in experiment [2] and in experiment [1] was “Example KIs that sensitize cancer cells to TRAIL-based agents” throughout.

Turning to `CCN(CC)CCNC(=O)c1c(C)[nH]c(/C=C2\C(=O)Nc3ccc(F)cc32)c1C` [Sunitinib Malate], in experiment [3], the “KIs that sensitize cancer cells” value is on record as “Example KIs that sensitize cancer cells to TRAIL-based agents”.

With `CCS(=O)(=O)c1cccc(-c2cc(C(=O)NC3CCN(C)CC3)c(C)c3[nH]c4ncc(C)cc4c23)c1` [TAK-901], the “KIs that sensitize cancer cells” value in experiment [1] was “Example KIs that sensitize cancer cells to TRAIL-based agents”.

As for `Cc1cnc(Nc2ccc(N3CCN(C)CC3)cc2)nc1Nc1cccc(S(=O)(=O)NC(C)(C)C)c1` [TG101209], in experiment [1], the “KIs that sensitize cancer cells” value was “Example KIs that sensitize cancer cells to TRAIL-based agents”.

Turning to `COc1cc2ncc(-c3ccccc3)nc2cc1OC` [Tyrphostin AG 1296], the “KIs that sensitize cancer cells” value in experiment [3] is recorded as “Example KIs that sensitize cancer cells to TRAIL-based agents”.

As to `CCO.N#CC(=C(/N)Sc1ccccc1N)/C(C#N)=C(\N)Sc1ccccc1N` [U0126-EtOH], in the experiment on HT29 (CRC) cells, the “efficacy when combined with TRAILPEG (relative cell death, KI+TRAILPEG / KI alone)” value was “synergistic efficacy” and the “KIs that sensitize cancer cells” value is listed as “Example KIs that sensitize cancer cells to TRAIL-based agents”.

As to `CC[C@@H]1C(=O)N(C)c2cnc(Nc3ccc(C(=O)N[C@H]4CC[C@H](N5CCN(CC6CC6)CC5)CC4)cc3OC)nc2N1C(C)C` [Volasertib (BI 6727), Volasertib], in experiment [1], the “KIs that sensitize cancer cells” value is “Example KIs that sensitize cancer cells to TRAIL-based agents”.

On to `COc1cc2ncnc(Nc3ccc(Cl)cc3F)c2cc1OC` [ZM 306416], for which the “KIs that sensitize cancer cells” value in experiment [3] is reported as “Example KIs that sensitize cancer cells to TRAIL-based agents”.

CHIR-98014: in experiment [1], the “KIs that sensitize cancer cells” value is reported as “Example KIs that sensitize cancer cells to TRAIL-based agents”.
